# Results published in PubChem BioAssay (NCI).
#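 Protocol summary: plate cells (96-well), add compound at 5 concentrations, incubate 48 h, interpolate endpoints linearly. GI50 = concentration required for 50% inhibition of growth. Definition used: TGI = concentration required for complete inhibition of growth.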
# Key:
# Experiment in all cases: inhibition of tumour cell growth, NCI panel, 48 h
# UACC-62 melanoma = system: UACC-62 melanoma
# ACHN renal = system: ACHN renal
# HCT-116 colon = system: HCT-116 colon
# LOX IMVI melanoma = system: LOX IMVI melanoma
# K-562 leukemia = system: K-562 leukemia
# CAKI-1 renal = system: CAKI-1 renal
# SW-620 colon = system: SW-620 colon
# M14 melanoma = system: M14 melanoma
# SF-295 CNS = system: SF-295 CNS
# SR leukemia = system: SR leukemia
Structure (SMILES),TGI (UACC-62 melanoma) [µM],TGI (ACHN renal) [µM],TGI (HCT-116 colon) [µM],TGI (LOX IMVI melanoma) [µM],TGI (K-562 leukemia) [µM],GI50 (CAKI-1 renal) [µM],TGI (CAKI-1 renal) [µM],TGI (SW-620 colon) [µM],TGI (M14 melanoma) [µM],TGI (SF-295 CNS) [µM],TGI (SR leukemia) [µM],GI50 (SW-620 colon) [µM],GI50 (UACC-62 melanoma) [µM],GI50 (ACHN renal) [µM],GI50 (HCT-116 colon) [µM],GI50 (LOX IMVI melanoma) [µM],GI50 (K-562 leukemia) [µM],GI50 (SF-295 CNS) [µM],GI50 (M14 melanoma) [µM],GI50 (SR leukemia) [µM]
COc1cc(CNc2ccc(C(C)C)cc2)cc(OC)c1OC,33,60.1,23.6,29.9,41.7,16.9,45.1,,,,,,,,,,,,,
N[C@H](C(=O)O)[C@H](Cl)CC(=O)O,> 100,> 100,> 100,> 100,> 100,,> 100,> 100,> 100,> 100,,,,,,,,,,
COc1ccc2c3c(c(=O)n(C)c2c1OC)C=CC(C)(C)O3,> 100,27.5,> 100,> 100,,,38.4,> 100,> 100,> 100,24.9,,,,,,,,,
C[C@@H]1COCCN1c1cc(C2(S(C)(=N)=O)CC2)nc(-c2ccnc3[nH]ccc23)n1 (stereo partly drawn),11,4.3,> 100,12.7,> 100,2.34,25.5,95.1,,19.8,,8.36,2.01,0.592,4.05,1.63,3.22,1.66,,
CC(=O)Oc1ccc(O)c(O)c1C/C=C(\C)CC/C=C(\C)CC/C=C(\C)CCC=C(C)C,,0.823,,0.694,,,8.03,1.21,4.98,4.27,,,,,,,,,,
S=c1[nH]c2ccc(Br)cc2c(=S)n1-c1ccccc1,32.3,79.3,43.9,85.1,> 100,,> 100,> 100,98.6,55.7,,,,,,,,,,
CCOC(=O)C(=O)Nc1c(C)cccc1C,> 100,> 100,> 100,> 100,,,> 100,> 100,> 100,> 100,,,,,,,,,,
CCc1cc(O)c(Cl)c(C)c1Cl,35.1,31.5,31.5,31.8,,,32.7,43.6,63.6,42.5,,,,,,,,,,
CC1S(=O)(=O)OCCOS1(=O)=O,> 83.5,> 100,> 100,> 100,> 100,,> 100,> 100,> 100,> 100,,,,,,,,,,
Clc1nc(Cl)c2c(ncn2C/C=C\Cn2cnc3c(Cl)nc(Cl)nc32)n1,4.09,3.33,,2.85,21.1,1.63,3.83,2.12,6.92,21.1,0.813,0.776,1.83,1.83,,1.36,0.801,8.99,2.79,0.218
OCCCCCCOc1ccc(-c2cc(-c3ccccn3)nc(-c3ccccn3)c2)cc1,0.933,5.22,1.48,1.02,3.78,,1.66,14.7,4.3,1.64,,,,,,,,,,
O=NNc1nc(-c2cccnc2)nc2ccccc12,> 100,> 100,> 100,,> 100,,> 100,> 100,> 100,> 100,,,,,,,,,,
C=C(C)C(=O)O[C@H]1[C@H]2[C@H](OC(=O)[C@H]2C)[C@H](O)[C@@H](C)[C@@H]2C=CC(=O)[C@]21C,3.84,12.7,4.6,7.74,,,5.66,10.7,38.5,18.7,5.39,,,,,,,,,
COc1nc2nccc-2c2occn12,> 100,> 100,> 100,> 100,> 100,,> 100,> 100,> 100,> 100,,,,,,,,,,
CN(C)CCOc1ccc2c(c1)C/C(=C/c1ncc([N+](=O)[O-])n1C)C2=O,4.97,4.71,> 19.6,14.4,> 20,,7.81,18.2,5.71,20.3,,,,,,,,,,
CC(=O)[O-].CC(=O)[O-].[NH2-].[Pt+2].c1ccc2cnccc2c1,> 100,13.4,33.7,31.7,51.8,55.1,> 100,38.3,> 100,> 100,,16.2,30.3,2.26,15.1,9.19,15.6,> 100,59.1,
Cc1cc(=O)oc2cc3c(cc12)Oc1ccccc1O3,> 100,> 100,> 100,> 100,> 10,,,> 100,> 100,> 100,> 100,,,,,,,,,
O=C(O)c1cc(=O)c2[nH]c3ccccc3c2s1,> 100,> 100,,,> 100,,> 100,> 100,> 100,> 100,,,,,,,,,,
Cn1nc(-c2ccccc2)c(C(=O)/C=C/c2ccccc2)c(N2CCOCC2)c1=O,52.9,39.9,32.8,60.5,56,,,> 100,52.6,,,,,,,,,,,
CCCCCCCCCCCC[n+]1ccc(CCCCCCCCC)cc1,1.73,,,,,1.51,2.93,,,,4.55,,0.465,,,,,,,1.47
COc1cc([C@@H]2c3cc4c(cc3[C@@H](NC(=O)c3ccccc3)C3COC(=O)[C@@H]32)OCO4)cc(OC)c1O (stereo partly drawn),11.6,5.55,28.8,25.1,33.8,,> 100,> 100,24.8,> 100,,,,,,,,,,
O=C1CC[C@@H](S(=O)(=O)c2ccccc2)[C@@H](/C=C/c2ccccc2)O1,> 100,> 100,> 100,> 100,> 100,,,> 100,> 100,> 100,> 100,,,,,,,,,
